Results: ChEMBL document CHEMBL5661975, “Discovery and pharmacologic characterization of CP-724,714, a selective ErbB2 tyrosine kinase inhibitor” (Cancer Res, 2007)
The source made the active and inactive calls. The rule behind the calls is not given here.

Legend:
[1] = Antitumor activity against human erbB2 transfected FRE cells xenografted bearing female athymic nu-nu CD-1 mouse assessed as apoptotic changes at 100 mg/kg, po administration and measured at 8 hrs by H&E staining method relative to control; type: functional
FRE [2] = assay: Antitumor activity against human erbB2 transfected FRE cells xenografted bearing female athymic nu-nu CD-1 mouse assessed as increase in cleaved caspase-3 cells at 100 mg/kg, po administration and measured at 8 hrs by immunohistochemical analysis; type: functional, organism-based
FRE [3] = assay: Antitumor activity against human erbB2 transfected FRE cells xenografted bearing female athymic nu-nu CD-1 mouse assessed as inhibition in tumor volume at 6.25 to 100 mg/kg, po QD administrated for 8 to 40 days; type: functional, organism-based; settings: dose 6.25-100 mg/kg, time 8-40 day
[4] = Antitumor activity against human erbB2 transfected FRE cells xenografted bearing female athymic nu-nu CD-1 mouse assessed as inhibition in tumor growth at 50 mg/kg, po QD administrated for 8 to 40 days relative to control; type: functional; settings: time 8-40 day
[5] = Cmax in human erbB2 transfected FRE cells xenografted bearing female athymic nu-nu CD-1 mouse at 50 mg/kg, po QD administrated for 8 to 40 days by liquid chromatography-tandem mass spectrometry analysis; type: ADME, organism-based; settings: in vivo, time 8-40 day
[6] = Average plasma concentration (0 to 4 hrs) in human erbB2 transfected FRE cells xenografted bearing female athymic nu-nu CD-1 mouse at 50 mg/kg, po QD administrated for 8 to 40 days by liquid chromatography-tandem mass spectrometry analysis; type: ADME, organism-based; settings: in vivo, time 8-40 day
[7] = Toxicity in human erbB2 transfected FRE cells xenografted bearing female athymic nu-nu CD-1 mouse assessed as body weight loss at 50 mg/kg, po QD administrated for 8 to 40 days; type: organism-based; settings: in vivo, time 8-40 day
[8] = Toxicity in human erbB2 transfected FRE cells xenografted bearing female athymic nu-nu CD-1 mouse assessed as mortality at 50 mg/kg, po QD administrated for 8 to 40 days; type: organism-based; settings: in vivo, time 8-40 day
BT-474 [9] = assay: Antitumor activity against human BT-474 expressing erbB2 cells xenografted bearing female athymic nu-nu CD-1 mouse assessed as inhibition in tumor growth at 50 to 100 mg/kg, po bid administration and measured at 4 day; type: functional, organism-based; settings: dose 50-100 mg/kg
BT-474 [10] = assay: Antitumor activity against human BT-474 expressing erbB2 cells xenografted bearing female athymic nu-nu CD-1 mouse assessed as decrease in tumor growth at 30 mg/kg, po bid administration and measured at 14 day; type: functional, organism-based
BT-474 [11] = assay: Antitumor activity against human BT-474 expressing erbB2 cells xenografted bearing female athymic nu-nu CD-1 mouse assessed as tumor regrowth at 30 mg/kg, po bid administration and measured at 40 day; type: functional, organism-based
BT-474 [12] = assay: Antitumor activity against human BT-474 expressing erbB2 cells xenografted bearing female athymic nu-nu CD-1 mouse assessed as inhibition in tumor growth at 1 mg/kg, po bid administration and measured at 40 day relative to control; type: functional; settings: BT-474, 960 h
BT-474 [13] = assay: Antitumor activity against human BT-474 expressing erbB2 cells xenografted bearing female athymic nu-nu CD-1 mouse assessed as inhibition in tumor growth at 10 mg/kg, po bid administration and measured at 40 day relative to control; type: functional; settings: BT-474, 960 h
BT-474 [14] = assay: Antitumor activity against human BT-474 expressing erbB2 cells xenografted bearing female athymic nu-nu CD-1 mouse assessed as inhibition in tumor growth at 30 mg/kg, po bid administration and measured at 40 day relative to control; type: functional; settings: BT-474, 960 h
BT-474 [15] = assay: Antitumor activity against human BT-474 cells expressing erbB2 xenografted bearing female athymic nu-nu CD-1 mouse assessed as inhibition in tumor growth at 100 mg/kg, po bid administration and measured at 40 day relative to control; type: functional; settings: BT-474, 960 h
BT-474 [16] = assay: Antitumor activity against human BT-474 expressing erbB2 cells xenografted bearing female athymic nu-nu CD-1 mouse assessed as tumor regression at 100 mg/kg, po bid administration and measured at 9 day relative to control; type: functional
BT-474 [17] = assay: Antitumor activity against human BT-474 expressing erbB2 cells xenografted bearing female athymic nu-nu CD-1 mouse assessed as tumor regression at 100 mg/kg, po bid administration and measured at 40 day relative to control; type: functional
BT-474 [18] = assay: Antitumor activity against human BT-474 expressing erbB2 cells xenografted bearing female athymic nu-nu CD-1 mouse assessed as reduction in tumor erbB2 receptor phosphorylation at 1 to 30 mg/kg, po bid administration and measured at 40 day by ELISA method relative to control; type: functional; parameters: scale not given: the % may be the effect or the level left; settings: dose 1-30 mg/kg
BT-474 [19] = assay: Antitumor activity against human BT-474 expressing erbB2 cells xenografted bearing female athymic nu-nu CD-1 mouse assessed as reduction in tumor erbB2 receptor phosphorylation at 100 mg/kg, po bid administration and measured at 40 day by ELISA method relative to control; type: functional; parameters: scale not given: the % may be the effect or the level left
MDA-MB-453 [20] = assay: Antitumor activity against human MDA-MB-453 expressing erbB2 cells xenografted bearing female athymic nu-nu CD-1 mouse assessed as inhibition in tumor growth at 25 mg/kg, po bid administration and measured at 29 day relative to control; type: functional; settings: MDA-MB-453, 696 h
MDA-MB-453 [21] = assay: Antitumor activity against human MDA-MB-453 expressing erbB2 cells xenografted bearing female athymic nu-nu CD-1 mouse assessed as inhibition in tumor growth at 50 mg/kg, po bid administration and measured at 29 day relative to control; type: functional; settings: MDA-MB-453, 696 h
MDA-MB-453 [22] = assay: Antitumor activity against human MDA-MB-453 expressing erbB2 cells xenografted bearing female athymic nu-nu CD-1 mouse assessed as inhibition in tumor growth at 100 mg/kg, po bid administration and measured at 29 day relative to control; type: functional; settings: MDA-MB-453, 696 h
MDA-MB-453 [23] = assay: Antitumor activity against human MDA-MB-453 expressing erbB2 cells xenografted bearing female athymic nu-nu CD-1 mouse assessed as reduction in tumor erbB2 phosphorylation at 100 mg/kg, po bid administration and measured at 29 day by ELISA method relative to control; type: functional; parameters: scale not given: the % may be the effect or the level left
MDA-MB-231 = assay: Antitumor activity against human MDA-MB-231 low expressing erbB2 cells xenografted bearing female athymic nu-nu CD-1 mouse assessed as inhibition in tumor growth at 100 mg/kg, po bid administrated for 14 to 31 days relative to control; type: functional; settings: time 14-31 day
LoVo = assay: Antitumor activity against human LoVo low expressing erbB2 cells xenografted bearing female athymic nu-nu CD-1 mouse assessed as inhibition in tumor growth at 100 mg/kg, po bid administrated for 14 to 31 days relative to control; type: functional; settings: time 14-31 day
COLO 205 = assay: Antitumor activity against human COLO 205 low expressing erbB2 cells xenografted bearing female athymic nu-nu CD-1 mouse assessed as inhibition in tumor growth at 100 mg/kg, po bid administrated for 14 to 31 days relative to control; type: functional; settings: time 14-31 day
MDA-MB-453 [24] = assay: Antitumor activity against human MDA-MB-453 high expressing erbB2 cells xenografted bearing female athymic nu-nu CD-1 mouse assessed as inhibition in tumor growth at 100 mg/kg, po bid administrated for 8 to 40 days relative to control; type: functional; settings: time 8-40 day
MDA-MB-453 [25] = assay: Antitumor activity against human MDA-MB-453 high expressing erbB2 cells xenografted bearing female athymic nu-nu CD-1 mouse assessed as inhibition in tumor regression at 100 mg/kg, po bid administrated for 8 to 40 days relative to control; type: functional; settings: time 8-40 day
BT-474 [26] = assay: Antitumor activity against human BT-474 high expressing erbB2 cells xenografted bearing female athymic nu-nu CD-1 mouse assessed as inhibition in tumor growth at 100 mg/kg, po bid administrated for 8 to 40 days relative to control; type: functional; settings: time 8-40 day
BT-474 [27] = assay: Antitumor activity against human BT-474 high expressing erbB2 cells xenografted bearing female athymic nu-nu CD-1 mouse assessed as inhibition in tumor regression at 100 mg/kg, po bid administrated for 8 to 40 days relative to control; type: functional; settings: time 8-40 day
BT-474 [28] = assay: Antitumor activity against human BT-474 high expressing erbB2 cells xenografted bearing female athymic nu-nu CD-1 mouse assessed as reduction in tumor phospho-Erk level at 30 to 100 mg/kg, po after 0.5 hrs administration by western blot analysis relative to control; type: functional; parameters: scale not given: the % may be the effect or the level left; settings: dose 30-100 mg/kg
BT-474 [29] = assay: Antitumor activity against human BT-474 high expressing erbB2 cells xenografted bearing female athymic nu-nu CD-1 mouse assessed as reduction in tumor phospho-Akt level at 30 mg/kg, po after 0.5 hrs administration by western blot analysis relative to control; type: functional; parameters: scale not given: the % may be the effect or the level left
BT-474 [30] = assay: Antitumor activity against human BT-474 high expressing erbB2 cells xenografted bearing female athymic nu-nu CD-1 mouse assessed as reduction in tumor phospho-Akt level at 100 mg/kg, po after 0.5 hrs administration by western blot analysis relative to control; type: functional; parameters: scale not given: the % may be the effect or the level left

COCC(=O)NC/C=C/c1ccc2ncnc(Nc3ccc(Oc4ccc(C)nc4)c(C)c3)c2c1 [CP-724714]
Activity [1]: 75% | Activity (FRE [2]): Active | inhibition (FRE [3]): Active | inhibition in vivo at 50 mg/kg [4]: ~50% | Cmax [5]: 4500 ng/mL | Cave [6]: 1300 ng/mL | Activity [7]: Non-Toxic | Activity [8]: Non-Toxic | inhibition (BT-474 [9]): Active | Activity (BT-474 [10]): Active | Activity (BT-474 [11]): Active | inhibition in vivo at 1 mg/kg (BT-474 [12]): 41% | inhibition in vivo at 10 mg/kg (BT-474 [13]): 42% | inhibition in vivo at 30 mg/kg (BT-474 [14]): 81% | inhibition in vivo at 100 mg/kg (BT-474 [15]): 100% | Activity (BT-474 [16]): ~6% | Activity (BT-474 [17]): 61% | Activity (BT-474 [18]): 10% | Activity (BT-474 [19]): 81% | inhibition in vivo at 25 mg/kg (MDA-MB-453 [20]): ~19% | inhibition in vivo at 50 mg/kg (MDA-MB-453 [21]): 66% | inhibition in vivo at 100 mg/kg (MDA-MB-453 [22]): 83% | Activity (MDA-MB-453 [23]): 69% | inhibition in vivo at 100 mg/kg (MDA-MB-231): 46% | inhibition in vivo at 100 mg/kg (LoVo): 46% | inhibition in vivo at 100 mg/kg (COLO 205): 46% | inhibition in vivo at 100 mg/kg (MDA-MB-453 [24]): 83% | inhibition in vivo at 100 mg/kg (MDA-MB-453 [25]): 83% | inhibition in vivo at 100 mg/kg (BT-474 [26]): 83% | inhibition in vivo at 100 mg/kg (BT-474 [27]): 83% | Activity (BT-474 [28]): ~75% | Activity (BT-474 [29]): 42% | Activity (BT-474 [30]): 70%
